The values below come from ChEMBL document CHEMBL3272295, “Drugs derived from cannabinoids. 5. delta6a,10a-Tetrahydrocannabinol and heterocyclic analogs containing aromatic side chains” (J Med Chem, 1976).

Active and inactive are the calls of the source. The rule behind the calls is not given here.

In data set [1] the test system is Rattus norvegicus. Nature of the data set: Analgesic activity in po dosed Sprague-Dawley rat after 15 to 90 mins by tail flick test. Format: functional.
For data set [2], the system named is Rattus norvegicus. Nature of the data set: Antianxiety activity in Long-Evans rat assessed as reduction in motor activity at 5 mg/kg, po after 2 hrs relative to vehicle-treated control. Format: functional. More on the design: scale not given: the % may be the effect or the level left.
Data set [3] has as its system Felis catus. The data set is described as follows: Hypnotic activity in cat assessed as increase in total sleep time at 0.5 mg/kg administered orally through diet measured for 12 hrs by EEG analysis. The data set is classed as functional. The following applies: route oral.
Data set [4] is filed under the species Rattus norvegicus. The data set is described as follows: animal or person. The data set is classed as functional. The following applies: Charles River, route oral.
Description: Antidiarrheal activity in Charles River rat assessed as inhibition of castor oil-induced diarrhea by measuring protected animals at 0.5 mg/kg, po administered 1 hr prior to castor oil challenge measured after 1 hr relative to vehicle-treated control
Data set [5] in a line: Acute toxicity in po dosed mouse. The data set is classed as organism-based. The following applies: in vivo.
Data set [6] relates to Mus musculus. Nature of the data set: Increase in footshock-induced fighting behavior in albino BALB/cJ mouse at 5 mg/kg, po after 30 to 90 mins. The data set is classed as functional.
In another data set the test system is Canis familiaris. Nature of the data set: Antianxiety activity in po dosed dog assessed as ataxia administered as single dose measured up to 24 hrs. The data set is classed as functional. The following applies: Canis lupus familiaris, read-out: MED.
Data set [7] relates to Rattus norvegicus. The data set is described as follows: Antipsychotic activity in rat assessed as reduction of methamphetamine-induced hyperactivity at 5 mg/kg, po administered prior to methamphetamine challenge relative to vehicle-treated control. Further details: scale not given: the % may be the effect or the level left. Format: functional.
Data set [8] relates to Rattus norvegicus. The data set is described as follows: Antipsychotic activity in rat assessed as reduction of methamphetamine-induced hyperactivity at 1 mg/kg, po administered prior to methamphetamine challenge relative to vehicle-treated control. The data set is classed as functional. More on the design: scale not given: the % may be the effect or the level left.
In data set [9] the test system is Rattus norvegicus. Nature of the data set: Antianxiety activity in Long-Evans rat assessed as reduction in motor activity at 10 mg/kg, po after 2 hrs relative to vehicle-treated control. Format: functional. More on the design: scale not given: the % may be the effect or the level left.
The subject of data set [10] is Mus musculus. Nature of the data set: Analgesic activity in po dosed mouse assessed as inhibition of acetic acid-induced writhing administered 30 mins prior to acetic acid challenge measured after 5 mins for 20 mins. The data set is classed as functional.
In data set [11] the test system is Felis catus. The data set is described as follows: Hypnotic activity in cat assessed as increase in non-REM sleep time at 0.5 mg/kg administered orally through diet measured for 12 hrs by EEG analysis. The data set is classed as functional. The following applies: route oral.
Data set [12] concerns Rattus norvegicus. Nature of the data set: Antihypertensive activity in spontaneously hypertensive rat model assessed as reduction in blood pressure at 10 mg/kg, po after 24 hrs. The data set is classed as functional. Further details: scale not given: the % may be the effect or the level left.
Data set [13] concerns Mus musculus. Nature of the data set: Antianxiety activity in albino BALB/cJ mouse assessed as reduction in footshock-induced fighting behavior at 10 mg/kg, po after 30 to 90 mins. The data set is classed as functional. More on the design: scale not given: the % may be the effect or the level left.
In data set [14] the test system is Mus musculus. Nature of the data set: Analgesic activity in mouse assessed as inhibition of acetic acid-induced writhing at 40 mg/kg, po administered 30 mins prior to acetic acid challenge measured after 5 mins for 20 mins. The data set is classed as functional.
For data set [15], the system named is Rattus norvegicus. Nature of the data set: Antihypertensive activity in spontaneously hypertensive rat model assessed as reduction in blood pressure at 10 mg/kg, po after 3 hrs. The data set is classed as functional. Further details: scale not given: the % may be the effect or the level left.
Data set [16] concerns Rattus norvegicus. The data set is described as follows: Antihypertensive activity in spontaneously hypertensive rat model assessed as reduction in blood pressure at 30 mg/kg, po after 24 hrs. Format: functional. Further details: scale not given: the % may be the effect or the level left.
For data set [17], the system named is Rattus norvegicus. The data set is described as follows: Antihypertensive activity in spontaneously hypertensive rat model assessed as reduction in blood pressure at 30 mg/kg, po after 3 hrs. Format: functional. More on the design: scale not given: the % may be the effect or the level left.
Another data set has as its system Rhesus monkey. Nature of the data set: Antianxiety activity in rhesus monkey assessed as antiagressive behavior at 10 mg/kg, po measured every hour post dosing. Format: functional, organism-based. Further details: dose 10 mg/kg. The following applies: Macaca mulatta.

In the case of `C#CCN1CCC2=C(C1)c1c(O)cc(C(C)C(C)CCc3ccc(F)cc3)cc1OC2(C)C` (configuration not stated), the ED50 with Rattus norvegicus [1] is 8.3 mg/kg; in the data set on Mus musculus [10], 4.4 mg/kg. For the same molecule, the Activity is reported as 59% in the data set on Rattus norvegicus [2]; 30% in the data set on Mus musculus [6]; 53% with Rattus norvegicus [7]; 23% with Rattus norvegicus [8]; 73% in the data set with Rattus norvegicus [9]. Further, the values for the Time with Felis catus [3] and in the data set on Felis catus [11] were 58 min and 60 min, respectively. The molecule also yielded an inhibition in vivo at 0.5 mg/kg in the data set listed under Rattus norvegicus [4] of 0%. In data set [5], this molecule returned an LD50 not below 1000 mg/kg. In addition, the minimal effective dose in the data set with Canis familiaris amounted to 10 mg/kg.

`CC1CCC2=C(C1)c1c(O)cc(C(C)CCCN(C)C)cc1OC2(C)C` (configuration not stated): the Activity in the data set on Rattus norvegicus [12] was found to be 13%; in the data set on Mus musculus [13], 38%; in the data set with Rattus norvegicus [2], 12%; in the data set with Rattus norvegicus [15], 9%; with Rattus norvegicus [16] it was 6%; in the data set with Rattus norvegicus [17], 10%. For the same molecule, the Activity in the data set on Rattus norvegicus [7] amounted to 20%. Further, the inhibition in vivo at 40 mg/kg in the data set on Mus musculus [14] was 18%. Besides, the outcome with Rhesus monkey was inactive. The same molecule showed an LD50 in data set [5] not below 1000 mg/kg.
